SMILES strings stand for the structures.

Broadly, the ED50 is the dose at which the effect has come halfway, by size or by number of responders.

This experiment relates to Rat Paw Edema. As to the kind of experiment: Rat paw edema assay (carrageenan-induced). In kind it is in vivo, Male Sprague-Dawley rats. The settings on record: dose of prodrug, po, required to reduce edema formation by 50% as compared to the vehicle control. The procedure:
Male Sprague-Dawley rats (150-200 g) are fasted overnight and are given, po, either vehicle (1% methocel or 5% Tween 80) or a test compound. One hr later, a line is drawn using a permanent marker at the level above the ankle in one hind paw to define the area of the paw to be monitored. The paw volume (V0) is measured using a plethysmometer (Ugo-Basile, Italy) based on the principle of water displacement. The animals are then injected subplantarly with 50 µl of 1% carrageenan solution in saline (FMC Corp, Maine) into the paw using an insulin syringe with a 25-gauge needle (i.e. 500 µg carrageenan per paw). Three hr later, the paw volume (V3) is measured and the increases in paw volume (V3 - VO) are calculated. The animals are sacrificed by CO2 asphyxiation and the absence or presence of stomach lesions scored. Data is compared with the vehicle-control values and percent inhibition calculated. All treatment groups are coded to eliminate observer bias.
Compounds of the present invention are prodrugs of inhibitors of COX-2 and are thereby useful in the treatment of COX-2 mediated diseases as enumerated above. The extent of conversion of these compounds to the active COX-2 inhibitors may be seen in the representative results shown below along with their antiinflammatory activity. The plasma levels indicated are the maximum rat plasma concentrations of the active COX-2 inhibitor observed when the rat was treated with a 20 mg/kg oral dose of the indicated prodrug. The ED50 values in the rat paw edema assay represent the dose of prodrug required to reduce edema formation by 50% as compared to the vehicle control.
For `CC1(C)OC(O)C(c2cccc(F)c2)=C1c1ccc(S(C)(=O)=O)cc1` (centres unmarked) [Example 1, 5,5-Dimethyl-3-(3-fluorophenyl)-2-hydroxy-4-(4-methylsulfonylphenyl)-2.5-dihydrofuran], the ED50 amounted to 2.5 mg/kg.
Turning to `CC1(C)OC(O)C(c2cc(F)cc(F)c2)=C1c1ccc(S(C)(=O)=O)cc1` (centres unmarked) [Example 2, 3-(3,5-Difluorophenyl)-5,5-dimethyl-2-hydroxy-4-(4-(methylsulfonyl)phenyl)-2,5-dihydrofuran], the ED50 came out at 0.7 mg/kg.
As for `CC1(C)OC(O)C(Oc2cccc(F)c2)=C1c1ccc(S(C)(=O)=O)cc1` (centres unmarked) [Example 9, 5.5-Dimethyl-3-(3-fluorophenoxy)-2-hydroxy-4-(4-(methylsulfonyl)phenyl)-2,5-dihydrofuran], the ED50 is 1.7 mg/kg.
With `CC1(C)OC(O)C(Oc2ccc(F)c(F)c2)=C1c1ccc(S(C)(=O)=O)cc1` (centres unmarked) [Example 10, 5.5-Dimethyl-3-(3,4-difluorophenoxy)-2-hydroxy-4-(4-(methylsulfonyl)phenyl)-2.5-dihydrofuran] the figure was 0.09 mg/kg.
Turning to `CS(=O)(=O)c1ccc(C2=C(c3ccccc3)C(O)CC2)cc1` (centres unmarked) [Example 13, 3-(4-(Methylsulfonyl)phenyl)-2-phenyl-2-cyclopenten-1-ol], the ED50 was found to be 0.9 mg/kg.
Turning to `CC(C)OC1=C(c2ccc(S(C)(=O)=O)cc2)C(C)(C)OC1O` (centres unmarked) [Example 39, 3-Isopropoxy-5,5-dimethyl-4-(4-methylsulfonylphenyl)-2,5-dihydrofuran-2-ol], the ED50 is 2.7 mg/kg.
With `CS(=O)(=O)c1ccc(C2=C(c3cccnc3)C(O)CC2)cc1` (centres unmarked) [Example 40, 3-(4-Methylsulfonylphenyl)-2-(3-pyridinyl)-2-cyclopenten-1-ol] the figure was 1.5 mg/kg.
With `CC(OC1=C(c2ccc(S(C)(=O)=O)cc2)C(C)(C)OC1O)C1CC1` (centres unmarked) [Example 44, 3-(1-Cyclopropylethoxy)-5,5-dimethyl-4-(4-methylsulfonylphenyl)-2,5-dihydrofuran-2-ol] the figure was 1.6 mg/kg.
